Test results published in ChEMBL document CHEMBL5335862, “The Science and Art of Structure-Based Virtual Screening” (ACS Med Chem Lett, 2024).
pIC50: −log10 of the molar value.

Biological target: CREB-binding protein (Homo sapiens, UniProt Q92793)
Experiment: Inhibition of CREBBP (unknown origin) by TR-FRET assay

CREB-binding protein, sequence (Q92793 whole entry): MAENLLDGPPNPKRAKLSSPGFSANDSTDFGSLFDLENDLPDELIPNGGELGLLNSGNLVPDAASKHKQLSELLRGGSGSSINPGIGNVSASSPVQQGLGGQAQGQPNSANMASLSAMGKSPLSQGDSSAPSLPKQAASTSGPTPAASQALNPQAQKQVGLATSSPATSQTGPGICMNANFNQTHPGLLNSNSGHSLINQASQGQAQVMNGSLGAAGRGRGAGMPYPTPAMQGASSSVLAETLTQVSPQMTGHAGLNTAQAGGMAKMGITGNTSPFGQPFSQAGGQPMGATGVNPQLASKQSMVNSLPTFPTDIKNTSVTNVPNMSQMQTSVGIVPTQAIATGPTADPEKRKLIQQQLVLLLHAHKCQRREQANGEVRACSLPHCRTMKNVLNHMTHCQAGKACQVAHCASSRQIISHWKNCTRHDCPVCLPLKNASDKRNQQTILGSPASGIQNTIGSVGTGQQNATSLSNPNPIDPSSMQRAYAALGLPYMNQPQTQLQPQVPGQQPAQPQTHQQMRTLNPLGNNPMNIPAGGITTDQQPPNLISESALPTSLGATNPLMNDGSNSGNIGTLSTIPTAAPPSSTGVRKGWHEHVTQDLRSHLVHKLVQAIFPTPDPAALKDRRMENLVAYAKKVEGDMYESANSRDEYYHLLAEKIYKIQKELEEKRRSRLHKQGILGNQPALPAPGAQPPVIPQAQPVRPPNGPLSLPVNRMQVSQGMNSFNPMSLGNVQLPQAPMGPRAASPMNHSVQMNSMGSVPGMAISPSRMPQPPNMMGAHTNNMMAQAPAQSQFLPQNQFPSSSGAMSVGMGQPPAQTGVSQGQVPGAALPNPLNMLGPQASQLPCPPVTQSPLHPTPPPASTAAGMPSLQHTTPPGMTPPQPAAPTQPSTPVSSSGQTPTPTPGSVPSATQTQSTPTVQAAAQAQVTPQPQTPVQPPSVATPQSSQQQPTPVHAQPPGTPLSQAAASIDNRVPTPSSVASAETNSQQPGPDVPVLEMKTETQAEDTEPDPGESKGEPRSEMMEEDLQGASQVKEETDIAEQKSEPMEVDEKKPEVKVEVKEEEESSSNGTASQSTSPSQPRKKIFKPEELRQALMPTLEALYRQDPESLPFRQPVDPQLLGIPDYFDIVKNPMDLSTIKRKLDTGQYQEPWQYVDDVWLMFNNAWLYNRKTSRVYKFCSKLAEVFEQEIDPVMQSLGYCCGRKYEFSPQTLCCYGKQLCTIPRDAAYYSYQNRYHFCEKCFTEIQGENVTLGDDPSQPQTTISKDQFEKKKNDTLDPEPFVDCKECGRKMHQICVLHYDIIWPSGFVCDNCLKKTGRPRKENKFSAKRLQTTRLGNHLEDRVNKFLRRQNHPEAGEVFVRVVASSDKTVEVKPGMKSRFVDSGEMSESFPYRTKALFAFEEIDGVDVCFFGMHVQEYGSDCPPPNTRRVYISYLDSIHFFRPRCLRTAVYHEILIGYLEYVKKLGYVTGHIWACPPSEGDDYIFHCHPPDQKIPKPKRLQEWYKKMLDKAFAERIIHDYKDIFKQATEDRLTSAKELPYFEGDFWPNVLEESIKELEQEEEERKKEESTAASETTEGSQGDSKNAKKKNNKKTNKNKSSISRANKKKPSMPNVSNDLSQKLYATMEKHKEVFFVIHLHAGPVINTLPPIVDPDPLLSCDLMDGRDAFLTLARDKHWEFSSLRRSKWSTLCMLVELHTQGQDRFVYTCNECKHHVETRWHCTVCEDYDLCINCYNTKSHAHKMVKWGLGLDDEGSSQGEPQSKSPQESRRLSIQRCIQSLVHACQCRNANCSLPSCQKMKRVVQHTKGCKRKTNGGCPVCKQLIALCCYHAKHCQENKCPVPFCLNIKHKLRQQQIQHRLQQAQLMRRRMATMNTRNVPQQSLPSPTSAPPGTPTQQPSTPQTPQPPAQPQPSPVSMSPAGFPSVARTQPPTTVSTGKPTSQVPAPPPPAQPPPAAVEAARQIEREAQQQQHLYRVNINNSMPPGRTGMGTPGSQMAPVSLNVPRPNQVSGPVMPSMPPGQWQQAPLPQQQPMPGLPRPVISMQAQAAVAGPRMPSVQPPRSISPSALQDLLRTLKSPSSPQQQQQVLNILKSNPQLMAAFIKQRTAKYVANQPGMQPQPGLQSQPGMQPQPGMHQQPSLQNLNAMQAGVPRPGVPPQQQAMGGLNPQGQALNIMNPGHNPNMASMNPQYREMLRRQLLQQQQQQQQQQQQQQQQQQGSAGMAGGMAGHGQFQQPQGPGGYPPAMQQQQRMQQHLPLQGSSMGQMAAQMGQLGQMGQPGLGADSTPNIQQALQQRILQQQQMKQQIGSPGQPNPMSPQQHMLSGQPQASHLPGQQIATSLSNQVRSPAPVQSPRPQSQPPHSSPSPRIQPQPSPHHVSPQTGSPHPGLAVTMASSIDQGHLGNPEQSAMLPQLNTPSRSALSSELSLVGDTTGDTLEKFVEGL

Cc1ccc(O)cc1-n1c(N)c(C(N)=O)c2nc3ccccc3nc21
pIC50: 6.52

Cc1cc2c(C(N)=O)c(N)n(-c3c(C)ccc(O)c3C)c2nc1C [LUNRESERTIB]
pIC50: 6.52
